{"source": "patent US20200338051A1", "about": "“NON-CLINICAL LIQUID FORMULATIONS OF PAN-JAK INHIBITOR” (Janssen Pharmaceutica NV, priority 2019, published 2020)", "origin": "cited, not measured here", "key": {"JAK3": {"molecular_target": "T1, JAK3 (Homo sapiens, UniProt P52333)", "T1 sequence (P52333 1-1124)": "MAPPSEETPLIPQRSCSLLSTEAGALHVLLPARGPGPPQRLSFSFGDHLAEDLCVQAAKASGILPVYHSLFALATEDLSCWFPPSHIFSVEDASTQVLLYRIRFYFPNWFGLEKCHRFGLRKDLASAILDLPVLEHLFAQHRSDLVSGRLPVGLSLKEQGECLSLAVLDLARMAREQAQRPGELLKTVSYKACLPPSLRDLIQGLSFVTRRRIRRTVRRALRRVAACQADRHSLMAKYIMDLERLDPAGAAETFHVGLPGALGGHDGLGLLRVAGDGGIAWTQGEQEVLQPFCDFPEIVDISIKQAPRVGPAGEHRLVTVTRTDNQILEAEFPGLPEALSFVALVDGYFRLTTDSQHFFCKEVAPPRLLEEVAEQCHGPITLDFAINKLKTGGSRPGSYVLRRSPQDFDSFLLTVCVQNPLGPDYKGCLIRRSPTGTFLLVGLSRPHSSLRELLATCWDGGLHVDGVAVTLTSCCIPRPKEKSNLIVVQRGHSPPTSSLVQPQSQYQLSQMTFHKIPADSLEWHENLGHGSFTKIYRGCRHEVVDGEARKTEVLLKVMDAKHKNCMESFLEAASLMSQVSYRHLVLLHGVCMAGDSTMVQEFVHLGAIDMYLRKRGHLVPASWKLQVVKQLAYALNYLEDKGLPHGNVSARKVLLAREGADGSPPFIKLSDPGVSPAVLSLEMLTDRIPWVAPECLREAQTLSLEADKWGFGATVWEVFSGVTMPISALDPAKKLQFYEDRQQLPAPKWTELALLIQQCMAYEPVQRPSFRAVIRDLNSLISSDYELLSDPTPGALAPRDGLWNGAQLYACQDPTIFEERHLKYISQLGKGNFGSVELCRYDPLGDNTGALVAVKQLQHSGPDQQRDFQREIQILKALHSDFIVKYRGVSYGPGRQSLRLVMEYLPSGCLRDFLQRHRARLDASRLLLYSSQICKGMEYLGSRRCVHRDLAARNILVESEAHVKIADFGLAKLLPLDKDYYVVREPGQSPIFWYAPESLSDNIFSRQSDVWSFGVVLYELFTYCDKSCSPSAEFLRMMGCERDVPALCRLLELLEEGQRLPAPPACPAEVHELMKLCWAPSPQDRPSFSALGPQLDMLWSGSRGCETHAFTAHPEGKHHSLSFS", "conditions": "in vitro"}, "TYK2": {"molecular_target": "TYK2 (Homo sapiens, UniProt P29597)", "sequence (P29597 whole entry, species assumed)": "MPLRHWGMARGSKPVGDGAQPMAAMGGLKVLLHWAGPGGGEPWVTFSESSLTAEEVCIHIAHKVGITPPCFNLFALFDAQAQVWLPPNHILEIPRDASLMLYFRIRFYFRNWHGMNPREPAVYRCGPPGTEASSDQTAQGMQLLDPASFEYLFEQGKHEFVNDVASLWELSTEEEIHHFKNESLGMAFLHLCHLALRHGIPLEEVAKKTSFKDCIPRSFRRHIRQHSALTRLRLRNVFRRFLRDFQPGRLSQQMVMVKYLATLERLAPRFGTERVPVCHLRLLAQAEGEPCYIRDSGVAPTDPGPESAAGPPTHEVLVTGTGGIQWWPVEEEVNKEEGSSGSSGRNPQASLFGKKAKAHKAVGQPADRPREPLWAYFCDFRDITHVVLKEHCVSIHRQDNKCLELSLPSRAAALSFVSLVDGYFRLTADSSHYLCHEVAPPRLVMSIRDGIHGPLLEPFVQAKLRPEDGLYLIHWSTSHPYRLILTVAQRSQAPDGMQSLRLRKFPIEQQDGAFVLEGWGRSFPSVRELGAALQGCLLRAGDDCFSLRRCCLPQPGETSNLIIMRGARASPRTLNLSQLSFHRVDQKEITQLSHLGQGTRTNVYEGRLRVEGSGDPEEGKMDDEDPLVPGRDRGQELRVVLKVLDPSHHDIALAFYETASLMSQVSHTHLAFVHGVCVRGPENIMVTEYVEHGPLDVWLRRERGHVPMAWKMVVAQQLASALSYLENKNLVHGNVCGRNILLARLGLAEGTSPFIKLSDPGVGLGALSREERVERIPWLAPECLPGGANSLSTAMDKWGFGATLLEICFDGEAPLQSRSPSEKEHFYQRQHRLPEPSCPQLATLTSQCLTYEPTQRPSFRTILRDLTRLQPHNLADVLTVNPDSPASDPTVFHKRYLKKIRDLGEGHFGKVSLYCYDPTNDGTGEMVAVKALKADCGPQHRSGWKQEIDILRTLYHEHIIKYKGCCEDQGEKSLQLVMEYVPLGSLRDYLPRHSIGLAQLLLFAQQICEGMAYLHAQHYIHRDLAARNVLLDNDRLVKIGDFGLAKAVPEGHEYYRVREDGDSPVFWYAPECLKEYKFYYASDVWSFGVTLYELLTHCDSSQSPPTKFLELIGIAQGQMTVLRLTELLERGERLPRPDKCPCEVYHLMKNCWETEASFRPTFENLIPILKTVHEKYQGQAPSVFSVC", "conditions": "in vitro"}, "phosphorylation of STAT5 [1]": {"tested_on": "phosphorylation of STAT5", "conditions": "PBMC, IL-2 stimulus"}, "JAK1": {"molecular_target": "JAK1 (Homo sapiens, UniProt P23458)", "sequence (P23458 whole entry, species assumed)": "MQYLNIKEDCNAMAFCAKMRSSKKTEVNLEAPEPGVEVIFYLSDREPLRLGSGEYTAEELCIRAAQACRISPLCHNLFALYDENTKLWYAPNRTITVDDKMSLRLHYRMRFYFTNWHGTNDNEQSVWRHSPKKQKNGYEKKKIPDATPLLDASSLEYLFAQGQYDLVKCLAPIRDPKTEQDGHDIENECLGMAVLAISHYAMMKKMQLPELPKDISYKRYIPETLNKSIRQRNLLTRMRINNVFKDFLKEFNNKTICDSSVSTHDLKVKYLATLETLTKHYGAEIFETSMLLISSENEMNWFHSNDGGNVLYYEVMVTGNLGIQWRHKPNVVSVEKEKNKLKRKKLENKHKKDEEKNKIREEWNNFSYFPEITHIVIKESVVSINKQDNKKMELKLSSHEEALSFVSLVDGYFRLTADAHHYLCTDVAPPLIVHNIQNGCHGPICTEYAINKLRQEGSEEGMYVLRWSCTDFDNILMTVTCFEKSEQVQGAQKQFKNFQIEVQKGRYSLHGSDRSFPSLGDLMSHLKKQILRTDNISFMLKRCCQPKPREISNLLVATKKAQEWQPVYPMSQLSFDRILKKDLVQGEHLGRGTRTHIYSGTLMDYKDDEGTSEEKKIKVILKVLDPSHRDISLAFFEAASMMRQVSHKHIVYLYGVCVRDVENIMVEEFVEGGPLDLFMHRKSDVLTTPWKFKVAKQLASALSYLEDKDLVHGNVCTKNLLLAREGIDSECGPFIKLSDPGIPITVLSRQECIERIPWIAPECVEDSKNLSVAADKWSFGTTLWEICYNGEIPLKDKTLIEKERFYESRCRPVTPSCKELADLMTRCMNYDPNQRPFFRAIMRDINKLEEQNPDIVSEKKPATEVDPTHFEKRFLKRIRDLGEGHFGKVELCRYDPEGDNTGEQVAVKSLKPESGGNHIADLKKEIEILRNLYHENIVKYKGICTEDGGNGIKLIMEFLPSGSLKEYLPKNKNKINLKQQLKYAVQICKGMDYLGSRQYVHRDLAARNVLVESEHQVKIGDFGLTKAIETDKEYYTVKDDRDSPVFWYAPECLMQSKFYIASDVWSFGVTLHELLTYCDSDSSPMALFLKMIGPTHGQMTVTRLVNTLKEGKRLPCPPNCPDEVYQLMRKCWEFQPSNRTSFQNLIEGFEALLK", "conditions": "in vitro"}, "phosphorylation of STAT4": {"tested_on": "phosphorylation of STAT4", "conditions": "PBMC, INF-α stimulus"}, "phosphorylation of STAT5 [2]": {"tested_on": "phosphorylation of STAT5", "conditions": "PBMC, GM-CSF stimulus"}, "JAK2": {"molecular_target": "JAK2 (Homo sapiens, UniProt O60674)", "sequence (O60674 whole entry, species assumed)": "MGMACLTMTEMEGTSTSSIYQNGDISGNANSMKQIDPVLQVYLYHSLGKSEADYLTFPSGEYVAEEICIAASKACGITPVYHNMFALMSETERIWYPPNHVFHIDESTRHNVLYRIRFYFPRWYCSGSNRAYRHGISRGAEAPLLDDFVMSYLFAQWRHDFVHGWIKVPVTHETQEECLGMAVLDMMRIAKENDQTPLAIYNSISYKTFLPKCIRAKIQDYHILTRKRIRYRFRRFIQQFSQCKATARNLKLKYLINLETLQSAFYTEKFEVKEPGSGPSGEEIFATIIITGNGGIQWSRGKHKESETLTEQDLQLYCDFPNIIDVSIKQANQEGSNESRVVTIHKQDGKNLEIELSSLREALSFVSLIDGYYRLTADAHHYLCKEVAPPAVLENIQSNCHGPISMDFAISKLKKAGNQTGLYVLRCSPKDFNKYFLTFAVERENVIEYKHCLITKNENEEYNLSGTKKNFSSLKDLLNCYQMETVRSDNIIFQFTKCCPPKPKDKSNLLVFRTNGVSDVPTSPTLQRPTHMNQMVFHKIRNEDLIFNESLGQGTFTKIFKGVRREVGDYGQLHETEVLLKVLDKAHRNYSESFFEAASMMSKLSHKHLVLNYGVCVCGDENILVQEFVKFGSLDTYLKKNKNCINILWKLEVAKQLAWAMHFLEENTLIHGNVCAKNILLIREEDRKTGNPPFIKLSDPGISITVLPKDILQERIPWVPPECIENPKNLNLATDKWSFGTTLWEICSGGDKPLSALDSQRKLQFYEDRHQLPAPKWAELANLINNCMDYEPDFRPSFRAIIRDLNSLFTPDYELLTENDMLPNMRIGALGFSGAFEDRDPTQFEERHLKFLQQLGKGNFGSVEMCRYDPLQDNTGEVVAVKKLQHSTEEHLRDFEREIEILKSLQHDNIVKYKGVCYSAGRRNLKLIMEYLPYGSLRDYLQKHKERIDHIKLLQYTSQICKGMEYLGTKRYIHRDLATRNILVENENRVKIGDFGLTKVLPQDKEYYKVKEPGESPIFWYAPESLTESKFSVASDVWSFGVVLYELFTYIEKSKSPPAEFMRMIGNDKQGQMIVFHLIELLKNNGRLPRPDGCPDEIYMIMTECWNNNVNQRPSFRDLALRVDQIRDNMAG", "conditions": "in vitro"}}, "note": "Read-outs that look alike come from different tables or passages of the source.", "data": [{"molecule": "CC(C)(O)CNC(=O)Cc1nc2cnc3[nH]ccc3c2n1[C@H]1CC[C@H](CC#N)CC1", "note": "[drug substance, 2-(1-((1r,4r)-4-(cyanomethyl)cyclohexyl)-1,6-dihydroimidazo[4,5-d]pyrrolo[2,3-b]pyridin-2-yl)-N-(2-hydroxy-2-methylpropyl)acetamide]", "values": [{"measurement": "Enzymatic activity at JAK3", "setting": "JAK3", "value": "potent enzymatic activity"}, {"measurement": "Systemic exposure", "setting": "in vivo", "value": "low systemic exposure"}, {"measurement": "Concentrations in the colon versus plasma", "setting": "intra-colonic dosing", "value": "much higher than those in the plasma"}, {"measurement": "Concentrations in the colon versus plasma", "setting": "oral dosing", "value": "much higher than those in the plasma"}, {"measurement": "Enzymatic activity at TYK2", "setting": "TYK2", "value": "potent enzymatic activity"}, {"measurement": "Inhibition of phosphorylation of STAT5", "setting": "phosphorylation of STAT5 [1]", "value": "showed cellular activity"}, {"measurement": "Enzymatic activity at JAK1", "setting": "JAK1", "value": "potent enzymatic activity"}, {"measurement": "Inhibition of phosphorylation of STAT4", "setting": "phosphorylation of STAT4", "value": "showed cellular activity"}, {"measurement": "Inhibition of phosphorylation of STAT5", "setting": "phosphorylation of STAT5 [2]", "value": "showed cellular activity"}, {"measurement": "Enzymatic activity at JAK2", "setting": "JAK2", "value": "potent enzymatic activity"}]}]}
